According to US12721800B2, “Phosphonates and N-halamines compositions for tartar removal” (O.Y.M. INNOVATION LTD., priority 2021, dated 2026):

Experiments:
[1] = Comparison of succinyl tetraphosphonate and two industrial pyrophosphates on human teeth having mature tartar; conditions: for mature tartar removal (images before and after treatment): 1 mg/ml in PBS, pH=7, 5 ml, shaken 10 min, then brushed 2 min
Experimental: The effect of succinyl tetraphosphonate and two types of industrial pyrophosphates on human teeth having mature tartar as were evaluated as followed:
Human teeth were incubated and shaken in 5 ml solution of PBS with SUTP ((a) see structure below), sodium pyrophosphate tetrabasic ((b) see structure below) and sodium pyrophosphate dibasic ((c) see structure below) (1 mg/ml, pH=7) for 10 min. Then, the teeth were brushed by a toothbrush for 2 min. Images were captured before and after treatment FIG. 6 (with SUTP), FIG. 7 (with sodium pyrophosphate tetrabasic), and FIG. 8 (with sodium pyrophosphate dibasic).

[2] = Effect of halamine NPs and SUTP on mature tartar removal on human teeth (10 min stirring, then brushing)
Experimental: The effect of halamines nanoparticles (as presented in Table 1) and SUTP compounds on mature tartar removal on human teeth were studied. 5 mL of each aqueous suspension were added to a 20 mL vial, and a tooth with tartar was added to each vial. Then, the solutions were stirred for 10 min at room temperature. After 10 minutes the teeth were brushed using a soft toothbrush and a photo of the tooth were taken.

[3] = Effect of SUTP, poly(StBP) NPs and γ-Glu-BP on human teeth (incubation, brushing, overnight re-incubation); conditions: for precipitate of tartar during incubation: 1 mg/ml aqueous solution, 4 ml, pH=4, RT, after 15 min of incubation; for cleaning of teeth from tartar (photographs): 1 mg/ml, pH=4, RT 1 hr, brushing, new solution overnight, washed with DDW
Experimental: The effect of SUTP (Example 1), poly(StBP) NPs (Example 4), and γ-Glu-BP (Example 2) on human teeth was evaluated as followed:
Teeth were incubated in three separate aqueous solutions of: SUTP, poly(StBP) NPs, and γ-Glu-BP (1 mg/ml, 4 ml, pH=4) at RT for 1 hr. […] The teeth were then brushed by a toothbrush to remove the remain tartar layer on the teeth and were incubated in new solutions of SUTP, poly(StBP) NPs, and γ-Glu-BP overnight. Then, the teeth were washed by DDW and were photographed.

| Compound | mature tartar removal (images before and after treatment) [1] | tartar removal from tooth ([2]; 1 mg/mL, pH 3-4, 10 min stirring and brushing) | tartar removal from tooth ([2]; 1 mg/mL, pH 6-7, 10 min stirring and brushing) | tartar removal from tooth ([2]; 10 mg/mL, pH 3-4, 10 min stirring and brushing) | cloudiness of the solution after the teeth brushing (tartar removed from the teeth) ([1]; 1 mg/ml, solution captured after teeth brushing) | precipitate of tartar during incubation [3] | cleaning of teeth from tartar (photographs) [3] |
| --- | --- | --- | --- | --- | --- | --- | --- |
| O=P([O-])(O)OP(=O)([O-])O.[Na+].[Na+] [Sodium pyrophosphate dibasic, sodium pyrophosphate dibasic, reference compound] | did not remove the mature tartar |  |  |  |  |  |  |
| O=P(O)(O)C(O)(CCC(O)(P(=O)(O)O)P(=O)(O)O)P(=O)(O)O [SUTP, Succinyl tetra phosphonate] | a significant mature tartar was removed | partially clean | partially clean | completely clean | significantly cloudier than the others | a new precipitate of tartar was observed spontaneously | cleaning of dirty teeth from tartar |
| NC(CCC(O)(P(=O)(O)O)P(=O)(O)O)C(=O)O (centres unmarked) [γ-Glu-BP] |  |  |  |  |  | a new precipitate of tartar was observed spontaneously | cleaning of dirty teeth from tartar |
| O=P([O-])([O-])OP(=O)([O-])[O-].[Na+].[Na+].[Na+].[Na+] [Sodium pyrophosphate tetrabasic, sodium pyrophosphate tetrabasic, reference compound] | did not remove the mature tartar |  |  |  |  |  |  |
